The text below walks through data of patent US20090281106A1, “PROPHYLACTIC AND/OR THERAPEUTIC METHOD FOR RHEUMATOID ARTHRITIS” (Kowa Co., Ltd, priority 2005, published 2009).

The structures appear in SMILES notation.

In the experiment the test system is rat collagen-induced arthritis model. Description: rat collagen-induced arthritis model, edema suppression in both hindlimbs. It counts as in vivo, female Lewis rat (LEW/Crj). Particulars: oral, Drug A 3 mg/kg twice a day, Drug B 1.5 mg/kg once a day; for Relative index: edema volume of group / control group; for Edema volume for both hindlimbs: average ± standard error of 5 to 6 rats; for Decreasing rate: vs control group; for edema suppressive effect (in words): sole administration. Here is the method:
For the cases of combined administration of 2-benzyl-5-(4-chlorophenyl)-6-[4-(methylthio)phenyl]-2H-pyridazin-3-one (the product synthesized by the above-described method is used) (Drug A) and leflunomide (Drug B), and respective single drug administrations, the effect of edema suppression in both hindlimbs was determined by the following method (rat collagen-induced arthritis model) (FDA, CBER, CDER, CDRH: Guidance for industry—Clinical development programs for drugs, devices, and biological products for the treatment of rheumatoid arthritis (RA)—. (1999)). In addition, the test animal used was female Lewis rat (LEW/Crj) (obtained from Charles River Laboratories Japan, Inc.).
For each 8-week-old LEW/Crj rat, the volume of a portion extending from the ankle to the paw was measured for both hindlimbs (hereinafter, hindlimbs volume) by means of a plethysmometer for small animals (TK-101CMP, product of Unicom), and the total volume was taken as the hindlimbs volume upon initiation of test (hereinafter, Pre value). This Pre value was used as an index to divide the rats into groups by one-parameter-based block randomization, so that the values in the respective groups averaged out.
The collagen emulsion for sensitization that was used to induce arthritis in rats, was prepared by homogenizing a 0.3% Type II collagen solution (Collagen Research Center), Adjuvant Peptide (Peptide Institute, Inc.) and Adjuvant Incomplete Freund (DIFCO), using a Handy Micro Homogenizer (Microtec Nition, Co., Ltd.) under ice-cooling. The collagen emulsion thus prepared was intracutaneously administered at 10 sites in the back of each rat at a dose of 0.1 mL/site, to perform initial sensitization of the rat. Seven days after the initial sensitization, 0.12 mL of the same collagen emulsion was intracutaneously administered to the tail head of each rat, to perform booster sensitization.
Drug administration was conducted from the day after the initial sensitization through 29 days thereafter. The group for sole administration of Drug A was orally administered with the drug at 3 mg/kg, twice a day, in the morning (9:00 to 11:00) and in the evening (15:30 to 17:30). The group for sole administration of Drug B was orally administered with the drug at 1.5 mg/kg, once a day, in the afternoon (11:30 to 13:30). On the other hand, the group for combined administration of Drug A and Drug B was orally administered with Drug A at 3 mg/kg in the morning (9:00 to 11:00) and in the evening (15:30 to 17:30), and with Drug B at 1.5 mg/kg in the afternoon (11:30 to 13:30).
14, 18, 21, 26 and 31 days after the initial sensitization, the hindlimbs volume was measured again for each rat, and the difference between each of the values and the Pre value was determined to calculate the edema volume for both hindlimbs.
Tables 1 to 4 and FIGS. 1 to 4 represent the edema volume for both hindlimbs after 18, 21, 26 and 31 days from the initial sensitization, respectively, of the group for sole administration of Drug A, the group for sole administration of Drug B and the group for combined administration. The edema volume for both hindlimbs (mL) is expressed in the average value±standard error of 5 to 6 rats in each group. Furthermore, the decreasing rate is indicated as (average value of edema volume for both hindlimbs for the control group−the average value of edema volume for hindlimbs for each group)/(average value of edema volume for both hindlimbs for the control group)×100, while the relative index is indicated as (average value of edema volume for both hindlimbs for each group)/(average value of edema volume for both hindlimbs for the control group).

Where [1] appears, read: 18 days after initial sensitization.
[2] abbreviates: 21 days after initial sensitization.
Setting [3] is: 26 days after initial sensitization.
The mark [4] stands for this setting: 31 days after initial sensitization.

For the compound `Cc1oncc1C(=O)Nc1ccc(C(F)(F)F)cc1` [Drug B, N-(4-trifluoromethylphenyl)-5-methylisoxazole-4-carboxamide], the “edema suppressive effect (in words)” value is listed as “decrease in the edema suppressive effect in the stage after 18 days from the initial sensitization”. Under setting [1], the Relative index is recorded as 0.28, the “Edema volume for both hindlimbs” value is reported as 0.57 ± 0.32 mL and the Decreasing rate came to 72%. In addition, under setting [2], the Relative index stood at 0.34, the “Edema volume for both hindlimbs” value worked out at 0.58 ± 0.31 mL and the Decreasing rate was 66%. Also, under setting [3], the Relative index is recorded as 0.49, the “Edema volume for both hindlimbs” value was 0.78 ± 0.28 mL and the Decreasing rate is reported as 51%. Moreover, under setting [4], the Relative index came out at 0.57, the “Edema volume for both hindlimbs” value stood at 0.81 ± 0.26 mL and the Decreasing rate was 43%.
As for `CSc1ccc(-c2nn(Cc3ccccc3)c(=O)cc2-c2ccc(Cl)cc2)cc1` [Drug A, 2-benzyl-5-(4-chlorophenyl)-6-[4-(methylthio)phenyl]-2H-pyridazin-3-one], the “edema suppressive effect (in words)” value is listed as “did not show a potent edema suppressive effect”. Moreover, under setting [1], the Relative index amounted to 0.89, the “Edema volume for both hindlimbs” value was 1.79 ± 0.17 mL and the Decreasing rate amounted to 11%. In addition, under setting [2], the Relative index was 0.90, the “Edema volume for both hindlimbs” value turned out to be 1.54 ± 0.17 mL and the Decreasing rate came to 10%. Under setting [3], the Relative index was found to be 0.99, the “Edema volume for both hindlimbs” value is recorded as 1.58 ± 0.27 mL and the Decreasing rate amounted to 1%. Further, under setting [4], the Relative index is recorded as 1.02, the “Edema volume for both hindlimbs” value was determined as 1.44 ± 0.26 mL and the Decreasing rate is given as −2%.
